Test results: patent US20250082611A1, “DOSING REGIMEN FOR AN NLRP3 INHIBITOR IN THE TREATMENT OF OSTEOARTHRITIS” (Novartis AG, priority 2021, published 2025)
“Also recorded” adds a separate entry of the source. Where two headings read alike, the source gives them in different places.

Assays:
[1] = First-in-human study: plasma pharmacokinetics in healthy subjects; format: in vivo; conditions: for median lag time: fed; for half-life: read-out: mean t1/2 (converted); for Tmax: read-out: median tmax; for CL renal: urine, read-out: Renal clearance (converted); for dose proportionality of exposure: single doses
Excerpt: (§1) The study design comprised of 4 parts: single ascending dose (SAD; Part A), relative bioavailability of tablet formulations (Part B), multiple ascending dose (MAD; Part C), and relative bioavailability and food effect (Part D) (FIG. 2; RF=Reference Formulation (crystalline suspension); T2=Test Formulation 2 (crystalline tablet); T3=Test Formulation 3 (spray-dried dispersion suspension); T4=Test Formulation 4 (encapsulated crystalline tablet)). In each group of Parts A and C, 8 subjects were randomized in a 3:1 ratio to receive Compound IA (6 subjects) or matching placebo (2 subjects).
(§2) For Part A, eight cohorts of eight eligible subjects were enrolled. Each subject received a single oral dose of Compound IA (3, 10, 30, 100, 300 mg of crystalline suspension and 100, 300, 600 mg of spray-dried dispersion (SDD) under fasted conditions. As this was a FIH study, two sentinel subjects were dosed first, at least 24 hours before the rest of the cohort was dosed, to assure maximum safety. Part B was skipped because the data from Part A provided for an adequate comparison of crystalline and SDD formulations.
(§3) For part C, eligible subjects were enrolled in six different cohorts. […] Subjects were dosed in Part C following review available safety, tolerability and PK data from preceding groups in Part A.
[…] […] Based on these doses, subjects were randomly assigned to 1 of 6 treatment sequences (1 subject per sequence) prepared using Williams design.
In single-dose part, blood samples were collected for determining the concentrations of Compound IA at the following time points relative to dosing on Day 1: at pre-dose and 0.25, 0.5, 0.75, 1, 1.5, 2, 3, 4, 6, 8, 12, 24, 36, and 48 hours post-dose, and at the follow-up visit. In multiple-dose part, relative to dosing on Days 1 and 14, samples were collected at pre-dose and 0.25, 0.5, 0.75, 1, 1.5, 2, 3, 4, 6, 8, and 12 hours post-dose; on Days 2, 4, 7, 9, and 11: at pre-dose; after the last dose on Day 14: at 24 and 36 hours (Day 15), and 48 hours (Day 16) post-dose; and at the follow-up visit.
All data were summarized using descriptive statistics and were listed and summarized in tabular and/or graphical form. Descriptive statistics for all relevant PK parameters included: n, arithmetic mean, standard deviation (SD), coefficient of variation (CV %), minimum, median, maximum, geometric mean, and geometric CV %. For tmax only median, minimum, and maximum are presented. PK parameters were calculated using noncompartmental methods using software Phoenix Version 8.1. Concentrations below the lower limit of quantification (LLOQ) were treated as zero in summary statistics for concentration data only. The linear trapezoidal rule was used for AUC calculation. Regression analysis of the terminal plasma elimination phase for the determination of t1/2 included at least 3 data points after Cmax. Parameters with an adjusted r^2 below 0.80 were flagged but included in the descriptive statistics. The parameters AUC0-inf, % AUCextra, CL/F, and VZ/F with an % AUCextra above 20% were excluded from the descriptive statistics.
In Part A, dose proportionality was explored using a regression power model relating logarithmically (log)-transformed Cmax, AUC0-last, and AUC0-inf to the log-transformed dose level. Point estimates for the intercept and the slope and corresponding 90% confidence intervals (CIs) for the slope were calculated. For Part C, dose proportionality was not explored. In Part D, the relative bioavailability of the Test Formulation (crystalline tablet, SDD and crystalline tablet) versus the Reference Formulation (crystalline suspension), as well as the effect of food, was explored using an analysis of variance (ANOVA) model on the PK data.
For the following treatments, the least-squares geometric mean ratios were presented together with 90% CIs: 100 mg Compound IA tablet fasted over 100 mg Compound IA suspension fasted, and 100 mg Compound IA tablet fed over 100 mg Compound IA tablet fasted.

[2] = First-in-human study: safety and tolerability in healthy subjects; format: in vivo
Excerpt: as §1, §2, §3
Safety assessments in all parts of the study included adverse event (AE) reporting using the Medical Dictionary for Regulatory Activities (version 22.1), clinical laboratory tests (biochemistry, hematology, and urinalysis), vital signs, electrocardiograms (ECGs), physical examination and skin biopsy (as applicable).

[3] = in vivo
Experimental: (§4) The safety of the treatment period is supported by 13-week GLP toxicology studies in rat and cynomolgus monkey. […] Safety margins for COMPOUND IA dosed at 25 mg b.i.d. based on 13-week GLP toxicology studies: […]

in vivo = conditions: cynomolgus monkey
Experimental: as §4

CYP3A = assay: In vitro metabolism studies, CYP3A induction and substrate; format: in vitro ADME
Excerpt: Therefore, investigators, at their discretion, may administer concomitant medications known to be metabolized by CYP3A4/5. Patients receiving such medications may require dose titration or increase of the concomitant drug. […] Investigators may, at their discretion, co-administer known inhibitors of CYP3A, but their duration should be kept as short as possible, and patients must be closely monitored.

[4] = single dose 100 mg, crystalline suspension

## CC(C)(O)c1ncc([S@](N)(=O)=NC(=O)Nc2c3c(cc4c2CCC4)CCC3)s1 [Compound IA, (R)-N′-((1,2,3,5,6,7-hexahydro-s-indacen-4-yl)carbamoyl)-2-(2-hydroxypropan-2-yl) thiazole-5-sulfonimidamide]
[1]; 100 mg crystalline tablet
  increase of AUC, fed (high-fat, high-calorie meal) vs fasted: 1.49 fold
  increase of Cmax, fed (high-fat, high-calorie meal) vs fasted: 2.05 fold
[1]; 100 mg, fasted
  Cmax lower for crystalline tablet than suspension: 78%
[1]; after 2 weeks, multiple doses and formulations
  multiple dose PK: linear
[1]; doses≥100 mg
  absorption of crystalline material: solubility-limited absorption
[1]; encapsulated crystalline tablets 25 mg bid
  median lag time: 0.75 h
[1]; encapsulated crystalline tablets 50 mg bid
  median lag time: 0.25 h
[1]; human, in vivo
  AUCs of subjects with heterogenous CYP2C9 genotypes versus normal CYP2C9 activity: higher
[1]; human, in vivo, po
  oral clearance relative to human liver blood flow: ≤ 2%
  renal elimination as share of oral dose: less than 0.8%
[1]; human, plasma, oral, 100 mg, suspension formulation
  half-life: 17.7 h
[1]; human, plasma, oral, across QD and BID dose levels
  half-life: 9.83 to 16.2 h
[1]; human, plasma, oral, steady state, across QD and BID dose levels, read-out: Vss/F
  Vd/F: 12.6 to 23.3 L
[1]; human, plasma, po, single oral doses 30-600 mg, fasted
  Tmax: 1.5 to 3 h
[1]; human, plasma, po, single oral doses of suspensions, fasted, across dose levels
  Tmax: 0.76 to 3 h
[1]; human, oral, Day 1
  CL renal: ~0.0667 mL/min
[1]; human, oral, steady state (Day 14)
  CL renal: ~0.133 mL/min
[1]; once daily dosing
  drug accumulation in reaching steady state: about 1.2 fold
[1]; [4]
  increase of AUC0-last, fed compared to fasted: 1.49 fold
  increase of Cmax, fed compared to fasted: 2.05 fold
[1]; SDD suspension 100-600 mg, fasted
  dose proportionality of exposure: dose-proportionally; also recorded: dose-proportional increase
[1]; crystalline suspension 3-300 mg, fasted
  dose proportionality of exposure: less than dose-proportional
[1]; single oral doses of suspensions, fasted, across dose levels
  median tmax: 0.76 to 3.0 h
[1]; steady state, across QD and BID dose levels
  CLss/F: ~1.0 L/h
[1]; twice daily dosing
  drug accumulation in reaching steady state: 2 fold
[2]; 21/94 who received Compound IA
  subjects with TEAEs considered related to study drug: 22%
[2]; Compound IA arm, 66/94 subjects
  subjects reporting treatment emergent adverse events (TEAEs): 70%
[2]; dosed once daily with 30, 100, and 200 mg
  skin rash: skin rashes have been observed in some participants
[2]; human, in vivo
  dose relation of maculopapular and/or pruritic skin rashes: most frequently reported at the higher multiple dose levels
  intensity of skin rash/pruritus TEAEs: mild to moderate
  subjects with mild, non-clinically significant decrease in neutrophil and leukocyte counts: 27 subjects
  vital signs, 12-lead ECG, 24-hour Holter monitoring, physical examination: No other clinically relevant findings
[2]; multiple dose 30 mg QD
  subjects with skin rash and/or pruritus: 2 n
[2]; multiple dose 50 mg BID
  subjects with skin rash and/or pruritus: 3 n
[2]; multiple dose 100 mg QD
  subjects with skin rash and/or pruritus: 3 n
[2]; multiple dose 200 mg QD
  subjects with skin rash and/or pruritus: 2 n
[2]; non-clinically significant, occasionally noted
  neutrophil and leukocyte counts: Mild decreases
[2]; of 122 enrolled, all received Compound IA
  subjects with TEAEs of maculopapular skin rash and/or pruritus (adverse events of special interest): 12 subjects
[2]; single and multiple oral doses, healthy subjects
  tolerability: generally well tolerated
[2]; single dose 100 mg
  subjects with skin rash and/or pruritus: 1 n
[2]; single dose 600 mg
  subjects with skin rash and/or pruritus: 1 n
[2]; whole study
  deaths or serious adverse events: No deaths or serious adverse events (SAEs) were reported
[3]
  Exposure multiples RAT NOAEL based on AUC0-24 h: 14
  Exposure multiples RAT NOAEL based on Cmax: 34
[3]; 25 mg
  Exposure multiples RAT NOAEL based on AUC0-24 h: 7
  Exposure multiples RAT NOAEL based on Cmax: 17
In vivo
  Exposure multiples MONKEY NOAEL based on AUC0-24 h: 49
  Exposure multiples MONKEY NOAEL based on Cmax: 66
  NOAEL at 13 weeks: 150 mg/kg/day
In vivo; 25 mg
  Exposure multiples MONKEY NOAEL based on AUC0-24 h: 61
  Exposure multiples MONKEY NOAEL based on Cmax: 82
CYP3A
  CYP3A substrate status: substrate of CYP3A
  induction of metabolism of CYP3A substrates: might have the potential to induce
